This is an account of results in ChEMBL document CHEMBL1201862, “PubChem BioAssay data set” (2004).

Some test systems named below: HCT-116; COLO 205; MOLT-4; M19-MEL; UACC-257; SF-268; A498; K562; CAKI-1; HT-29; M14; NCI-H522; NCI-H226; SK-MEL-28; UO-31; UACC-62; OVCAR-3; MDA-MB-231; MCF7; DU-145.
Experiment in all cases: NCI anticancer screen, dose series, 48 h

Each structure is given as a SMILES string. Several values for one entry are separate records, joined by “and”; a condition that tells them apart may be missing. Equal values may be shown once.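 Values below derive from 48-hour exposures of cells grown in 96-well plates, with endpoints linearly interpolated between the two concentrations bracketing the appropriate inhibition level. At the GI50, growth is halved.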 Activity calls are given as the source filed them. Rule as the data show it: active = GI50 up to about 1.1 µM and inactive = higher.

As to `Cc1nc2ccccc2c(=O)n1NC(=S)Nc1ccccc1`, the GI50 with HCT-116, in the assay on COLO 205, with MOLT-4, with M19-MEL, in the assay with UACC-257 and in the assay on SF-268 was > 100 µM (inactive) in each case. The GI50 in the assay on A498, in the assay with K562, with CAKI-1, with HT-29, in the assay on M14 and in the assay with NCI-H522 was > 100 µM (inactive) in each case. The GI50 with NCI-H226 is 37.7 µM (inactive); in the assay with SK-MEL-28 it was > 100 µM (inactive); in the assay on UO-31, 88.9 µM (inactive); in the assay on UACC-62, > 100 µM (inactive).

For the molecule `N#CC(C(=O)/C(=N/N)C(C#N)c1ccc(Cl)cc1)c1ccc(Cl)cc1` (stereo not given), the GI50 in the assay with HCT-116, in the assay with COLO 205, in the assay on MOLT-4, in the assay with M19-MEL, with UACC-257 and with SF-268 was > 100 µM (inactive) each time. Also, the GI50 in the assay with A498, in the assay with K562, in the assay on HT-29, with OVCAR-3, with M14 and in the assay on NCI-H522 was > 100 µM (inactive) each time. Also, the GI50 with NCI-H226 was > 100 µM (inactive); with SK-MEL-28, > 10 µM (inactive); in the assay on UO-31, > 100 µM (inactive); in the assay with UACC-62, > 100 µM (inactive).

For the molecule `CC(C)=CC(=O)C1c2cccc(O)c2C(=O)c2c(O)cc(C)cc21` (stereo not given), the GI50 in the assay with HCT-116 was 2.14 µM (inactive); in the assay on COLO 205, 1.79 µM (inactive); in the assay with MOLT-4, 4.23 µM (inactive); with M19-MEL, 1.81 µM (inactive); with UACC-257, 2.88 µM (inactive); in the assay on SF-268, 2.12 µM (inactive). Besides, the GI50 is 10.7 µM (inactive) with A498; 2.65 µM (inactive) in the assay on K562; 5.25 µM (inactive) in the assay on CAKI-1; 6.97 µM (inactive) with HT-29; 1.99 µM (inactive) in the assay on OVCAR-3; 3.25 µM (inactive) in the assay with M14. Moreover, the GI50 in the assay with NCI-H522 is 2 µM (inactive); in the assay on NCI-H226 it was 2.24 µM (inactive); in the assay on SK-MEL-28, 3.05 µM (inactive); in the assay on UO-31, 2.09 µM (inactive).

Take `CCOC(=N)CC(=O)c1ccccc1`: the GI50 in the assay with HCT-116, with COLO 205, in the assay with MOLT-4, in the assay with M19-MEL, in the assay with UACC-257 and with SF-268 was > 100 µM (inactive) throughout. Moreover, the GI50 in the assay with A498, in the assay on K562, in the assay with CAKI-1, in the assay with HT-29, in the assay on OVCAR-3 and in the assay with M14 was > 100 µM (inactive) throughout. Also, the GI50 with NCI-H522, in the assay with NCI-H226, in the assay on SK-MEL-28, in the assay with UO-31 and in the assay with UACC-62 was > 100 µM (inactive) throughout.

`C=C1C(=O)OC2/C=C(\CO)C(OC(C)=O)CC(O)/C(C)=C/C(OC(=O)C(C)CC)C12` (stereo not given): the GI50 in the assay on HCT-116 was 14 µM (inactive) and 19.7 µM (inactive); in the assay with COLO 205, 14 µM (inactive) and 11.8 µM (inactive); in the assay with M19-MEL, 16.8 µM (inactive); in the assay with UACC-257, 15.2 µM (inactive) and 18 µM (inactive); in the assay on SF-268, 28.9 µM (inactive) and 19.7 µM (inactive); with A498, 33 µM (inactive) and 28.2 µM (inactive). Moreover, the GI50 in the assay on MDA-MB-231 is 17.3 µM (inactive); in the assay with CAKI-1, 27.5 µM (inactive) and 24.2 µM (inactive); with HT-29 it was 16.3 µM (inactive) and 21 µM (inactive); in the assay on OVCAR-3, 18.5 µM (inactive) and 16.5 µM (inactive); in the assay on M14, 16.7 µM (inactive) and 15.8 µM (inactive); with NCI-H522, 4.57 µM (inactive) and 3.4 µM (inactive). Further, the GI50 is 29.6 µM (inactive) in the assay on NCI-H226; 12.9 µM (inactive) with MCF7; 18.3 µM (inactive) and 26.9 µM (inactive) in the assay on SK-MEL-28; 87.1 µM (inactive) and 65.5 µM (inactive) with UO-31; 19.8 µM (inactive) with DU-145; 19.4 µM (inactive) and 17.5 µM (inactive) in the assay on UACC-62.

As for `COC(=O)C(C(=O)C(=O)NC1=C(Cl)C(=O)c2ccccc2C1=O)c1csc(-n2nc(-c3ccccc3)cc2-c2ccccc2)n1` (stereo not given), the GI50 was > 100 µM (inactive) in the assay on HCT-116; > 100 µM (inactive) in the assay on COLO 205; > 100 µM (inactive) in the assay with MOLT-4; > 100 µM (inactive) with M19-MEL; > 100 µM (inactive) in the assay on UACC-257; 24.3 µM (inactive) in the assay on SF-268. The GI50 in the assay on A498 is > 100 µM (inactive); with K562 it was 20.9 µM (inactive); in the assay on CAKI-1 it was > 100 µM (inactive); with HT-29 it was 20.7 µM (inactive); with OVCAR-3, > 100 µM (inactive); in the assay with M14, > 100 µM (inactive). In addition, the GI50 with NCI-H522 is > 100 µM (inactive); in the assay with NCI-H226 it was > 100 µM (inactive); with UO-31, 6.08 µM (inactive); in the assay on UACC-62 it was 44.1 µM (inactive).

With `CCCCCCC(C)OC(=O)/C=C(\CC(=O)OC(C)CCCCCC)C(=O)OC(C)CCCCCC` (stereo not given), the GI50 in the assay on HCT-116, in the assay on COLO 205, in the assay on MOLT-4, in the assay on M19-MEL, in the assay on UACC-257 and in the assay on SF-268 was > 100 µM (inactive) in each case. Besides, the GI50 in the assay with A498, with CAKI-1, with HT-29, in the assay on OVCAR-3, in the assay with M14 and in the assay with NCI-H522 was > 100 µM (inactive) throughout. The GI50 with NCI-H226, with SK-MEL-28, in the assay with UO-31 and in the assay with UACC-62 was > 100 µM (inactive) in each case.

As to `COc1cc([C@@H]2c3cc4c(cc3[C@@H](NC(=O)c3ccc(N)cc3)C3COC(=O)[C@@H]32)OCO4)cc(OC)c1O` (stereo not given in full), the GI50 in the assay on HCT-116 is 2.47 µM (inactive); with COLO 205, 10.8 µM (inactive); with MOLT-4, 0.0375 µM (active); with M19-MEL it was 12.5 µM (inactive); with UACC-257 it was 9.16 µM (inactive); in the assay with SF-268, 2.41 µM (inactive). The GI50 is 1.64 µM (inactive) in the assay with A498; 3.52 µM (inactive) with K562; 5.4 µM (inactive) in the assay with CAKI-1; 2.41 µM (inactive) in the assay on HT-29; 7.46 µM (inactive) with OVCAR-3; 2.72 µM (inactive) in the assay with M14. The GI50 was 1.75 µM (inactive) with NCI-H522; 0.881 µM (active) in the assay on NCI-H226; 5.15 µM (inactive) with SK-MEL-28; 11.9 µM (inactive) in the assay on UO-31; 1.19 µM (inactive) with UACC-62.

As for `COC12OCCN(CCO)C1=CC(=O)C1(C)N=NC(C)C12` (stereo not given), the GI50 with HCT-116, in the assay with COLO 205, in the assay with MOLT-4, in the assay with M19-MEL, with UACC-257 and in the assay on A498 was > 100 µM (inactive) each time. The GI50 in the assay on K562, in the assay on CAKI-1, in the assay with HT-29, in the assay with OVCAR-3, in the assay with M14 and in the assay on NCI-H522 was > 100 µM (inactive) throughout. The GI50 in the assay on NCI-H226, with SK-MEL-28, with UO-31 and with UACC-62 was > 100 µM (inactive) each time.

For the molecule `O=C(NC(=O)c1ccccc1[N+](=O)[O-])Nc1ccc(Oc2ncc(Cl)cn2)c(C(F)(F)F)c1`, the GI50 with HCT-116 was 0.0124 µM (active); with COLO 205 it was 0.0184 µM (active); in the assay on MOLT-4 it was 0.047 µM (active); in the assay with M19-MEL, < 0.0171 µM (active); in the assay with UACC-257, < 0.01 µM (active); in the assay on SF-268, 0.0733 µM (active). In addition, the GI50 with A498 was < 0.01 µM (active); with K562, < 0.0336 µM (active); in the assay with MDA-MB-231, 0.0371 µM (active); in the assay on CAKI-1, < 0.01 µM (active); with HT-29, 0.0105 µM (active); in the assay with OVCAR-3, < 0.01 µM (active). The GI50 in the assay on M14 was < 0.0115 µM (active); with NCI-H522, < 0.01 µM (active); in the assay on NCI-H226, 0.0191 µM (active); with MCF7, < 0.01 µM (active); with SK-MEL-28, < 0.0104 µM (active); with UO-31, 0.0281 µM (active). Besides, the GI50 was 0.0366 µM (active) in the assay with DU-145 and < 0.01 µM (active) with UACC-62.

On to `CSCC1CC(c2ccc(Cl)cc2)=NO1` (stereo not given), for which the GI50 in the assay with HCT-116, with COLO 205, with MOLT-4, in the assay with M19-MEL, in the assay on UACC-257 and with SF-268 was > 100 µM (inactive) throughout. Further, the GI50 in the assay on A498, in the assay with K562, in the assay with CAKI-1, with HT-29, in the assay on OVCAR-3 and in the assay on M14 was > 100 µM (inactive) each time. Moreover, the GI50 in the assay on NCI-H522, in the assay on NCI-H226, in the assay on SK-MEL-28, with UO-31 and with UACC-62 was > 100 µM (inactive) each time.
